Reference: patent US20200368247A1, “CENICRIVIROC FOR THE TREATMENT OF FIBROSIS” (Tobira Therapeutics, Inc., priority 2014, published 2020)
Marks after values point to notes of the source that are not given here.

What was measured:
[1] = Study 202 fasting metabolic laboratory parameters; type: in vivo, human
Excerpt: All abnormalities in total cholesterol, LDL cholesterol, triglycerides, or glucose were Grade 1 or Grade 2.
Mean baseline values and changes from baseline in HbA1c, HOMA-IR, fasting LDL, fasting HDL, fasting total cholesterol, fasting total cholesterol/HDL ratio, and fasting triglycerides are shown in Table 36.

[2] = Study 202 ECG abnormalities; type: in vivo, human; conditions: through Week 48
[3] = CVC 100 mg (N = 58), through Week 48
[4] = CVC 200 mg (N = 57), through Week 48
[5] = All CVC (N = 115), EFV (N = 28)

CCCCOCCOc1ccc(-c2ccc3c(c2)/C=C(/C(=O)Nc2ccc([S@@+]([O-])Cc4cncn4CCC)cc2)CCCN3CC(C)C)cc1 [CVC, (S)-8-[4-(2-Butoxyethoxy)phenyl]-1-isobutyl-N-(4-{[(1-propyl-1H-imidazol-5-yl)methyl]sulfinyl}phenyl)-1,2,3,4-tetrahydro-1-benzazocine-5-carboxamide]
Fasting total cholesterol abnormality, any grade [1, 3]: 3 (5%) n (%)
Fasting triglycerides abnormality, Grade 1 [1, 3]: 0 n (%)
Fasting triglycerides abnormality, Grade 2 [1, 3]: 0 n (%)
Fasting triglycerides abnormality, Grade 3 [1, 3]: 0 n (%)
Fasting triglycerides abnormality, Grade 4 [1, 3]: 0 n (%)
Fasting triglycerides abnormality, any grade [1, 3]: 0 n (%)
change in fasting total cholesterol (mainly LDL cholesterol) ([1]; CVC 100 mg and 200 mg, through Week 48): decrease
Fasting triglycerides, mean change from baseline ([1]; CVC 100 mg, Week 4): -8 mg/dL
HbA1c, mean change from baseline ([1]; CVC 100 mg, Week 4): 0.01 % Hb
HbA1c, mean change from baseline ([1]; CVC 100 mg, Week 12): −0.04 % Hb
Fasting triglycerides, mean change from baseline ([1]; CVC 100 mg, Week 24): -8 mg/dL
HbA1c, mean change from baseline ([1]; CVC 100 mg, Week 24): 0.06 % Hb
HbA1c, mean change from baseline ([1]; CVC 100 mg, Week 48): 0.09 % Hb
Any fasting laboratory abnormality, worst Grade 1 [1, 4]: 6 (11%) n (%)
Any fasting laboratory abnormality, worst Grade 2 [1, 4]: 6 (11%) n (%)
Any fasting laboratory abnormality, worst Grade 3 [1, 4]: 0 n (%)
Any fasting laboratory abnormality, worst Grade 4 [1, 4]: 0 n (%)
Any graded (Grade 1-4) fasting laboratory abnormality [1, 4]: 12 (21%) n (%)
Fasting LDL cholesterol abnormality, Grade 1 [1, 4]: 2 (4%) n (%)
Fasting LDL cholesterol abnormality, Grade 2 [1, 4]: 2 (4%) n (%)
Fasting LDL cholesterol abnormality, Grade 3 [1, 4]: 0 n (%)
Fasting LDL cholesterol abnormality, Grade 4 [1, 4]: 0 n (%)
Fasting LDL cholesterol abnormality, any grade [1, 4]: 4 (7%) n (%)
Fasting glucose (serum, high) abnormality, Grade 1 [1, 4]: 3 (5%) n (%)
Fasting glucose (serum, high) abnormality, Grade 2 [1, 4]: 2 (4%) n (%)
Fasting glucose (serum, high) abnormality, Grade 3 [1, 4]: 0 n (%)
Fasting glucose (serum, high) abnormality, Grade 4 [1, 4]: 0 n (%)
Fasting glucose (serum, high) abnormality, any grade [1, 4]: 5 (9%) n (%)
Fasting total cholesterol abnormality, Grade 1 [1, 4]: 2 (4%) n (%)
Fasting total cholesterol abnormality, Grade 2 [1, 4]: 3 (5%) n (%)
Fasting total cholesterol abnormality, Grade 3 [1, 4]: 0 n (%)
Fasting total cholesterol abnormality, Grade 4 [1, 4]: 0 n (%)
Fasting total cholesterol abnormality, any grade [1, 4]: 5 (9%) n (%)
Fasting triglycerides abnormality, Grade 1 [1, 4]: 0 n (%)
Fasting triglycerides abnormality, Grade 2 [1, 4]: 1 (2%) n (%)
Fasting triglycerides abnormality, Grade 3 [1, 4]: 0 n (%)
Fasting triglycerides abnormality, Grade 4 [1, 4]: 0 n (%)
Fasting triglycerides abnormality, any grade [1, 4]: 1 (2%) n (%)
Fasting triglycerides, mean change from baseline ([1]; CVC 200 mg, Week 4): -2 mg/dL
HbA1c, mean change from baseline ([1]; CVC 200 mg, Week 4): −0.08 % Hb
HbA1c, mean change from baseline ([1]; CVC 200 mg, Week 12): −0.08 % Hb
HbA1c, mean change from baseline ([1]; CVC 200 mg, Week 24): 0.06 % Hb
Fasting total cholesterol, mean change from baseline ([1]; CVC 200 mg, Week 48): -9 mg/dL
HbA1c, mean change from baseline ([1]; CVC 200 mg, Week 48): 0.10 % Hb
HR Abnormally high (120 bpm ≤ abnormally high) [2, 5]: 0 n (%)
HR Abnormally low (≤ 50 bpm) [2, 5]: 0 n (%)
PR Abnormally high (210 ms ≤ abnormally high) [2, 5]: 3 (3%) n (%)
QRS Abnormally high (120 ms ≤ abnormally high) [2, 5]: 1 (1%)^d n (%)
QRS Abnormally low (≤ 50 ms) [2, 5]: 0 n (%)
QTcB interval Borderline (450 ms ≤ borderline ≤ 480 ms) [2, 5]: 6 (6%) n (%)
QTcB interval Increase by >30-60 ms [2, 5]: 9 (9%) n (%)
QTcB interval Increase by >60 ms [2, 5]: 1 (1%) n (%)
QTcB interval Pathologically prolonged (> 500 ms) [2, 5]: 0 n (%)
QTcB interval Prolonged (480 ms < prolonged ≤ 500 ms) [2, 5]: 0 n (%)
QTcF interval Borderline (450 ms ≤ borderline ≤ 480 ms) [2, 5]: 2 (2%) n (%)
QTcF interval Increase by >30-60 ms [2, 5]: 7 (7%) n (%)
QTcF interval Increase by >60 ms [2, 5]: 1 (1%) n (%)
QTcF interval Pathologically prolonged (> 500 ms) [2, 5]: 0 n (%)
QTcF interval Prolonged (480 ms < prolonged ≤ 500 ms) [2, 5]: 0 n (%)
HR Abnormally high (120 bpm ≤ abnormally high) ([2]; CVC 100 mg (N = 58)): 0 n (%)
HR Abnormally low (≤ 50 bpm) ([2]; CVC 100 mg (N = 58)): 0 n (%)
PR Abnormally high (210 ms ≤ abnormally high) ([2]; CVC 100 mg (N = 58)): 2 (3%) n (%)
QRS Abnormally high (120 ms ≤ abnormally high) ([2]; CVC 100 mg (N = 58)): 1 (2%)^d n (%)
QRS Abnormally low (≤ 50 ms) ([2]; CVC 100 mg (N = 58)): 0 n (%)
QTcB interval Borderline (450 ms ≤ borderline ≤ 480 ms) ([2]; CVC 100 mg (N = 58)): 4 (8%) n (%)
QTcB interval Increase by >30-60 ms ([2]; CVC 100 mg (N = 58)): 6 (12%) n (%)
QTcB interval Increase by >60 ms ([2]; CVC 100 mg (N = 58)): 1 (2%) n (%)
QTcB interval Pathologically prolonged (> 500 ms) ([2]; CVC 100 mg (N = 58)): 0 n (%)
QTcB interval Prolonged (480 ms < prolonged ≤ 500 ms) ([2]; CVC 100 mg (N = 58)): 0 n (%)
QTcF interval Borderline (450 ms ≤ borderline ≤ 480 ms) ([2]; CVC 100 mg (N = 58)): 1 (2%) n (%)
QTcF interval Increase by >30-60 ms ([2]; CVC 100 mg (N = 58)): 4 (8%) n (%)
QTcF interval Increase by >60 ms ([2]; CVC 100 mg (N = 58)): 1 (2%) n (%)
QTcF interval Pathologically prolonged (> 500 ms) ([2]; CVC 100 mg (N = 58)): 0 n (%)
QTcF interval Prolonged (480 ms < prolonged ≤ 500 ms) ([2]; CVC 100 mg (N = 58)): 0 n (%)
HR Abnormally high (120 bpm ≤ abnormally high) ([2]; CVC 200 mg (N = 57)): 0 n (%)
HR Abnormally low (≤ 50 bpm) ([2]; CVC 200 mg (N = 57)): 0 n (%)
PR Abnormally high (210 ms ≤ abnormally high) ([2]; CVC 200 mg (N = 57)): 1 (2%) n (%)
QRS Abnormally high (120 ms ≤ abnormally high) ([2]; CVC 200 mg (N = 57)): 0 n (%)
QRS Abnormally low (≤ 50 ms) ([2]; CVC 200 mg (N = 57)): 0 n (%)
QTcB interval Borderline (450 ms ≤ borderline ≤ 480 ms) ([2]; CVC 200 mg (N = 57)): 2 (4%) n (%)
QTcB interval Increase by >30-60 ms ([2]; CVC 200 mg (N = 57)): 3 (6%) n (%)
QTcB interval Increase by >60 ms ([2]; CVC 200 mg (N = 57)): 0 n (%)
QTcB interval Pathologically prolonged (> 500 ms) ([2]; CVC 200 mg (N = 57)): 0 n (%)
QTcB interval Prolonged (480 ms < prolonged ≤ 500 ms) ([2]; CVC 200 mg (N = 57)): 0 n (%)
QTcF interval Borderline (450 ms ≤ borderline ≤ 480 ms) ([2]; CVC 200 mg (N = 57)): 1 (2%) n (%)
QTcF interval Increase by >30-60 ms ([2]; CVC 200 mg (N = 57)): 3 (6%) n (%)
QTcF interval Increase by >60 ms ([2]; CVC 200 mg (N = 57)): 0 n (%)
QTcF interval Pathologically prolonged (> 500 ms) ([2]; CVC 200 mg (N = 57)): 0 n (%)
QTcF interval Prolonged (480 ms < prolonged ≤ 500 ms) ([2]; CVC 200 mg (N = 57)): 0 n (%)
